# Results taken from ChEMBL document CHEMBL1133788, “Structure--activity relationships of side-chain modified didemnins” (Bioorg Med Chem Lett, 2001).
# Legend:
# Type in all cases: functional
# [1] = Total Growth inhibitory activity evaluated in NCI-60 tumor cell screen; conditions: Homo sapiens
# [2] = Growth inhibitory activity evaluated in NCI-60 tumor cell screen; conditions: Homo sapiens
# [3] = Lethal concentration for inhibitory activity evaluated in NCI-60 tumor cell screen; conditions: human
Compound,TGI [1] [µM],GI50 [2] [µM],LC50 [3] [µM]
CC[C@H](C)[C@H]1NC(=O)[C@@H](NC(=O)[C@@H](CC(C)C)N(C)C(=O)CNC(=O)Cc2cc(=O)oc3cc(N(C)C)ccc23)[C@@H](C)OC(=O)[C@H](Cc2ccc(OC)cc2)N(C)C(=O)[C@@H]2CCCN2C(=O)[C@H](CC(C)C)NC(=O)[C@@H](C)C(=O)[C@H](C(C)C)OC(=O)C[C@@H]1O,0.0205,0.011,7.2
CC[C@H](C)[C@H]1NC(=O)[C@@H](NC(=O)[C@@H](CC(C)C)N(C)C(=O)C2CCCN2)[C@@H](C)OC(=O)[C@H](Cc2ccc(OC)cc2)N(C)C(=O)[C@@H]2CCCN2C(=O)[C@H](CC(C)C)NC(=O)[C@@H](C)C(=O)[C@H](C(C)C)OC(=O)C[C@@H]1O (stereo not given in full),0.012,0.00062,0.21
CC[C@H](C)[C@H]1NC(=O)[C@@H](NC(=O)[C@@H](CC(C)C)N(C)C(=O)[C@@H]2C=CCN2C(=O)[C@@H](C)O)[C@@H](C)OC(=O)[C@H](Cc2ccc(OC)cc2)N(C)C(=O)[C@@H]2CCCN2C(=O)[C@H](CC(C)C)NC(=O)[C@@H](C)C(=O)[C@H](C(C)C)OC(=O)C[C@@H]1O,0.02,0.0028,0.083
CC[C@H](C)[C@H]1NC(=O)[C@@H](NC(=O)[C@@H](CC(C)C)N(C)C(=O)[C@H]2C=CCN2)[C@@H](C)OC(=O)[C@H](Cc2ccc(OC)cc2)N(C)C(=O)[C@@H]2CCCN2C(=O)[C@H](CC(C)C)NC(=O)[C@@H](C)C(=O)[C@H](C(C)C)OC(=O)C[C@@H]1O,0.039,0.003,7
CC[C@H](C)[C@H]1NC(=O)[C@@H](NC(=O)[C@@H](CC(C)C)N(C)C[C@@H]2CCCN2C(=O)[C@@H](C)O)[C@@H](C)OC(=O)[C@H](Cc2ccc(OC)cc2)N(C)C(=O)[C@@H]2CCCN2C(=O)[C@H](CC(C)C)NC(=O)[C@@H](C)C(=O)[C@H](C(C)C)OC(=O)C[C@@H]1O,0.076,0.004,3
